Assays:
[1] = molecular target: T1, Proteasome Macropain subunit MB1 (Homo sapiens) (UniProt P28074); assay: Inhibition of human 20S proteasome beta 5 at 10 uM relative to control
T1 sequence (whole entry): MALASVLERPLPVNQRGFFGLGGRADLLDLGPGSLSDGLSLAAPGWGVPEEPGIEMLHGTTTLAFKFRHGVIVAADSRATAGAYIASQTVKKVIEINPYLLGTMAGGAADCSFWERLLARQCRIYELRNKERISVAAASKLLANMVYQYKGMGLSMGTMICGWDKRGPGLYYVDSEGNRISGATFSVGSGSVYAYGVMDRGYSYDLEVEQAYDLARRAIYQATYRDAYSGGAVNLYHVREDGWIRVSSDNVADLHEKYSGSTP

[2] = molecular target: T2, Proteasome Macropain subunit MB1 (Homo sapiens, UniProt P28074); assay: Inhibition of human 20S proteasome beta 5
T2 sequence (P28074 whole entry): T1 sequence (whole entry)

[3] = tested on: MDA-MB-468; assay: Antiproliferative activity against human MDA-MB-468 cells assessed as reduction in cell viability by SRB assay
[4] = organism: Homo sapiens; assay: Inhibition of human 20S proteasome beta 5i subunit at 10 microM relative to control

Question: With `CC(C)N(Cc1cccc(-c2cncnc2)c1)C(=O)c1cc2ccccc2o1` as the compound, how does the inhibition [1] read?
Answer: The inhibition was under 30%.

Question: Which IC50 [2] does the source give for `CCCc1ccc(OCC(=O)N(Cc2cccc(-c3cncnc3)c2)C(C)C)cc1` here?
Answer: Its IC50 is 2270 nM.

Question: What about the IC50 [3] of the same compound?
Answer: The IC50 was 30.2 µM.

Question: For `CCCc1ccc(OCC(=O)N(Cc2cncc(-c3cncnc3)c2)C(C)C)cc1`, which inhibition [1] is on record?
Answer: Its inhibition is under 30%.

Question: How did the inhibition [4] turn out when `CCCc1ccc(OCC(=O)N(Cc2nc(-c3ccco3)no2)C(C)C)cc1` was run?
Answer: The inhibition was 7.3%.

Question: What about the IC50 [2] of the same compound?
Answer: The IC50 was 120 nM.

Question: And the IC50 [3]?
Answer: The IC50 was 38.8 µM.

Question: `CC(C)N(Cc1nc(-c2ccco2)no1)C(=O)c1cnc2ccccc2n1` was tested. Which inhibition [1] did it give?
Answer: Its inhibition is under 30%.

Question: `CC(C)N(Cc1nc(-c2ccc3ccccc3c2)no1)C(=O)c1cc2ccccc2o1` was tested. Which inhibition [1] did it give?
Answer: The inhibition was under 30%.

Question: How did the inhibition [1] turn out when `CC(C)N(Cc1cccc(-c2cccs2)c1)C(=O)c1cc2ccccc2o1` was run?
Answer: Its inhibition is under 30%.

Question: With `CC(C)N(Cc1nc(-c2ccco2)no1)C(=O)c1cc2ccccc2o1` as the compound, how does the IC50 [2] read?
Answer: The IC50 was 610 nM.

Question: What about the IC50 [3] of the same compound?
Answer: Its IC50 is over 40 µM.

Question: For `CCCc1ccc(OCC(=O)N(Cc2ccc(-c3cccs3)cc2)C(C)C)cc1`, which IC50 [2] is on record?
Answer: Its IC50 is 33500 nM.

Question: Which inhibition [1] does the source give for `CCCc1ccc(OCC(=O)N(Cc2cncc(-c3cccnc3)c2)C(C)C)cc1` here?
Answer: The inhibition was under 30%.

Question: For `CCCc1ccc(OCC(=O)N(Cc2cccc(-c3ccco3)c2)C(C)C)cc1`, which IC50 [2] is on record?
Answer: Its IC50 is 10700 nM.

Question: How did the IC50 [2] turn out when `CC(C)N(Cc1ccc(-c2cccnc2)cc1)C(=O)COc1ccc(Oc2ccccc2)cc1` was run?
Answer: Its IC50 is 1370 nM.

Question: What about the IC50 [3] of the same compound?
Answer: The IC50 was over 40 µM.

Question: How did the IC50 [2] turn out when `CC(C)N(Cc1nc(-c2ccco2)no1)C(=O)COc1ccc(Oc2ccccc2)cc1` was run?
Answer: The IC50 was 14700 nM.

Question: With `CC(C)N(Cc1cccc(-c2ccco2)c1)C(=O)c1cc2ccccc2o1` as the compound, how does the IC50 [2] read?
Answer: The IC50 was 47300 nM.

Question: Which results are given for `CC(C)N(Cc1nc(-c2cccnc2)no1)C(=O)COc1ccc(Oc2ccccc2)cc1`?
Answer: IC50 [2]: 1610 nM; IC50 [3]: 6.8 µM

Question: How did the IC50 [2] turn out when `CCCc1ccc(OCC(=O)N(Cc2nc(-c3ccc4ccccc4n3)no2)C(C)C)cc1` was run?
Answer: Its IC50 is 880 nM.

Question: And the IC50 [3]?
Answer: The IC50 was 35 µM.

Question: For `CC(C)N(Cc1nc(-c2ccco2)no1)C(=O)c1ccc2ccccc2n1`, which inhibition [1] is on record?
Answer: The inhibition was under 30%.

Question: Which inhibition [1] does the source give for `CC(C)N(Cc1cncc(-c2cccnc2)c1)C(=O)c1cc2ccccc2o1` here?
Answer: Its inhibition is under 30%.

Question: How did the IC50 [2] turn out when `CCCc1ccc(OCC(=O)N(Cc2cccc(-c3cccnc3)c2)C(C)C)cc1` was run?
Answer: The IC50 was 1080 nM.

Question: What about the IC50 [3] of the same compound?
Answer: The IC50 was 19.3 µM.

Question: For `CC(C)N(Cc1cncc(-c2cncnc2)c1)C(=O)c1cc2ccccc2o1`, which inhibition [1] is on record?
Answer: The inhibition was under 30%.

Question: With `CC(C)N(Cc1cccc(-c2cccs2)c1)C(=O)c1ccc2ccccc2n1` as the compound, how does the IC50 [2] read?
Answer: The IC50 was 3360 nM.

Question: What about the IC50 [3] of the same compound?
Answer: Its IC50 is 31.9 µM.

Question: Which results are given for `CCCc1ccc(OCC(=O)N(Cc2nc(-c3cccs3)no2)C(C)C)cc1`?
Answer: inhibition [4]: 25.3%; IC50 [2]: 180 nM; IC50 [3]: 27 µM

Question: For `CCCc1ccc(OCC(=O)N(Cc2ccc(-c3cccnc3)cc2)C(C)C)cc1`, which IC50 [2] is on record?
Answer: The IC50 was 1140 nM.

Question: For `CC(C)N(Cc1cccc(-c2cccnc2)c1)C(=O)c1cc2ccccc2o1`, which IC50 [2] is on record?
Answer: Its IC50 is 20200 nM.

Question: Which IC50 [2] does the source give for `CCCc1ccc(OCC(=O)N(Cc2nc(-c3ccc4ccccc4c3)no2)C(C)C)cc1` here?
Answer: The IC50 was 4310 nM.

Question: For `CCCc1ccc(OCC(=O)N(Cc2nc(-c3cccnc3)no2)C(C)C)cc1`, which IC50 [3] is on record?
Answer: The IC50 was 7.6 µM.

Question: For `CC(C)N(Cc1cccc(-c2ccco2)c1)C(=O)c1ccc2ccccc2n1`, which IC50 [2] is on record?
Answer: The IC50 was 61600 nM.

Question: Which IC50 [2] does the source give for `CCCc1ccc(OCC(=O)N(Cc2cccc(-c3cccs3)c2)C(C)C)cc1` here?
Answer: Its IC50 is 9450 nM.

Question: How did the IC50 [2] turn out when `CC(C)N(Cc1nc(-c2cccs2)no1)C(=O)c1cc2ccccc2o1` was run?
Answer: Its IC50 is 390 nM.

Question: And the IC50 [3]?
Answer: Its IC50 is over 40 µM.

Question: For `CC(C)N(Cc1nc(-c2ccc3ccccc3n2)no1)C(=O)c1cc2ccccc2o1`, which inhibition [1] is on record?
Answer: The inhibition was under 30%.

Question: How did the inhibition [1] turn out when `CC(C)N(Cc1ccc(-c2cccs2)cc1)C(=O)COc1ccc(Oc2ccccc2)cc1` was run?
Answer: The inhibition was under 30%.
